Columns and labels:
[1] = target: acid α-glucosidase (Homo sapiens, UniProt P10253); assay: Inhibition of acid α-glucosidase activity; assay type: biochemical
Procedure: Pharmacokinetic models (Example 8) were used to predict the length of time that the plasma or tissue concentrations of duvoglustat (a surrogate of miglustat) would remain above the IC50 (the concentration giving 50% of maximum inhibition of acid α-glucosidase activity) of miglustat in plasma and lysosome. Inhibition of acid α-glucosidase activity is determined by methods described previously (Flanagan J J, Rossi B, Tang K, Wu X, Mascioli K, et al. (2009) “The pharmacological chaperone 1-deoxynojirimycin increases the activity and lysosomal trafficking of multiple mutant forms of acid alpha-glucosidase.” Hum Mutat 30: 1683-1692).

[2] = Population PK model of miglustat, oral dosing in Gaa knockout mice; assay type: in vivo, mouse; conditions: typical value
Procedure: A population PK model of miglustat is constructed based on oral dosing in Gaa knockout (KO) mice. The model has a residual additive error of 0.475 ng/m L.

## CCCCN1C[C@H](O)[C@@H](O)[C@H](O)[C@H]1CO [miglustat, (2R,3R,4R,5S)-1-butyl-2-(hydroxymethyl)piperidine-3,4,5-triol]
[1]; pH of plasma (pH 7.0)
  IC50, inhibition of acid α-glucosidase activity: 170 µg/L
[1]; pH of the lysosomal compartment (pH 5.2)
  IC50: 1720 nM
[2]
  Central volume of distribution (Vc): 4.55 mL
  Peripheral clearance (CLd): 4.57 mL/h
  Peripheral volume of distribution (V2): 19.6 mL
  Rate constant of absorption (Ka): 2.09 h⁻¹
  Systemic clearance (CL): 43.3 mL/h

Source: patent publication US20250381254A1, “Augmented Acid Alpha-Glucosidase For The Treatment Of Pompe Disease” (Amicus Therapeutics, Inc., priority 2015, published 2025)
